Reference: patent US10195158B2, “Bioactive oil based polyesteramide nanofibers for wound healing applications” (Council of Scientific and Industrial Research, priority 2014, dated 2019)
Converted amounts (≈) assume the structure as drawn.

Tested on: Staphylococcus aureus
Experiment: Minimum inhibitory concentration of amoxicillin
Assay type: cell-based
Details: susceptible bacteria

SMILES: CC1(C)S[C@@H]2[C@H](NC(=O)[C@H](N)c3ccc(O)cc3)C(=O)N2[C@H]1C(=O)O [Amoxicillin]
- MIC: 0.05 to 8 µg/mL (≈ 0.137 to 21.9 µM)
